How the values were obtained:
[1] = Antiproliferative activity against human MKN45 cells at 20 uM after 48 hrs by MTT assay relative to control; type: functional; details: MKN-45, 48 h, read-out: GI
[2] = Antiproliferative activity against human NB4 cells at 5 uM after 48 hrs by MTT assay relative to control; type: functional; details: NB-4, 48 h, read-out: GI
[3] = Cytotoxicity against human NB4 cells assessed as decrease in cell viability after 48 hrs by MTT assay; type: functional, cell-based; details: NB-4, 48 h
[4] = Cytotoxicity against human MKN45 cells assessed as decrease in cell viability after 48 hrs by MTT assay; type: functional, cell-based; details: MKN-45, 48 h
[5] = Cytotoxicity against primary porcine fetal kidney cells assessed as decrease in cell viability after 48 hrs by MTT assay; type: toxicity, cell-based; details: pig (Sus scrofa)
[6] = Cytotoxicity against primary goat fetal fibroblast assessed as decrease in cell viability after 48 hrs by MTT assay; type: toxicity; details: goat (Capra hircus), primary goat fetal fibroblasts

Structure (SMILES)	inhibition of growth at 20 µM [1] [%]	inhibition of growth at 5 µM [2] [%]	IC50 [3] [µM]	IC50 [4] [µM]	IC50 at 48 h [5] [µM]	IC50 at 48 h [6] [µM]
COc1cccc2c1C=[N+](c1ccccc1C)CC2	30.5	3.4	–	–	–	–
COc1cccc2c1C=[N+](c1ccccc1F)CC2	67.5	42	4.55	6.64	–	–
COc1ccc2c(c[n+](C)c3c4cc5c(cc4ccc23)OCO5)c1OC [CHELERYTHRINE]	92.7	88.4	1.49	12.7	–	–
COc1cccc2c1C=[N+](c1ccccc1C#N)CC2	51.1	30.4	6.97	4.61	–	–
COc1ccc([N+]2=Cc3c(cccc3OC)CC2)cc1	0.7	6.6	–	–	–	–
COc1cccc2c1C=[N+](c1ccccc1[N+](=O)[O-])CC2	3	10.5	–	–	–	–
COc1cccc2c1C=[N+](c1ccc(Br)cc1Br)CC2	51.9	61.4	2.46	4.53	–	–
COc1cccc2c1C=[N+](c1ccc(Cl)cc1)CC2	12.3	23.1	–	–	–	–
CC(=O)Oc1cccc2c1C=[N+](c1ccccc1I)CC2	3.4	15	–	–	–	–
COc1cccc2c1C=[N+](c1ccc(Cl)cc1Cl)CC2	88.2	54.7	1.99	3.55	–	–
COc1cccc2c1C=[N+](c1ccccc1Cl)CC2	84	47.6	9.29	7.21	–	–
COc1cccc2c1C=[N+](c1c(F)cccc1F)CC2	80.5	48.9	3.9	8.43	–	–
COc1cccc2c1C=[N+](c1ccc(Br)cc1F)CC2	69.2	56.9	3.62	6.95	–	–
COc1cccc2c1C=[N+](c1ccccc1C(F)(F)F)CC2	85	59.3	3.06	2.92	–	–
COc1cccc2c1C=[N+](c1cccc(I)c1)CC2	73	45.3	1.67	11.4	4.57	2.67
Ic1ccccc1[N+]1=Cc2c(cccc2OCc2ccccc2)CC1	91.5	78.2	2.65	1.99	–	–
COc1cccc2c1C=[N+](c1cc(Cl)cc(Cl)c1)CC2	86.4	55.8	2.65	3.61	–	–
COc1cccc2c1C=[N+](c1cccc(C(F)(F)F)c1)CC2	78.3	47.9	9.61	2.03	–	–
COc1cccc2c1C=[N+](c1cccc(F)c1)CC2	80.6	37.6	18.8	11.3	–	–
COc1cccc2c1C=[N+](c1cccc(C)c1)CC2	79.6	3.1	–	8.57	–	–
COc1cccc2c1C=[N+](c1ccc(C(F)(F)F)cc1)CC2	83.4	53.3	2.58	7.07	–	–

Structure (SMILES)	inhibition of growth at 20 µM [1] [%]	inhibition of growth at 5 µM [2] [%]	IC50 [3] [µM]	IC50 [4] [µM]	IC50 at 48 h [5] [µM]	IC50 at 48 h [6] [µM]
COc1cccc2c1C=[N+](c1ccc(F)cc1)CC2	53	40.2	23.8	21	–	–
C[n+]1cc2c3c(ccc2c2ccc4cc5c(cc4c21)OCO5)OCO3 [SANGUINARIUM]	92.3	88.5	0.53	1.51	–	–
COc1cccc2c1C=[N+](c1cccc([N+](=O)[O-])c1)CC2	67.1	40.3	2.83	13.7	–	–
CCOc1cccc2c1C=[N+](c1ccccc1I)CC2	82.2	49.7	–	–	–	–
COc1cccc2c1C=[N+](c1ccc(C)cc1)CC2	4.7	17.7	–	–	–	–
COc1cccc2c1C=[N+](c1cccc(O)c1)CC2	24.5	24.2	–	–	–	–
COc1cccc2c1C=[N+](c1cccc(Br)c1)CC2	87.4	46.6	4.62	10.5	–	–
COc1cccc2c1C=[N+](c1ccc(I)cc1)CC2	71.1	51.8	8.59	4.26	–	–
COc1cccc2c1C=[N+](c1ccccc1O)CC2	8.4	0.6	–	–	–	–
COc1cccc2c1C=[N+](c1ccc(C#N)cc1)CC2	81.2	36.4	3.49	3.56	–	–
COc1ccccc1[N+]1=Cc2c(cccc2OC)CC1	15	2.1	–	–	–	–
COc1cccc2c1C=[N+](c1ccc(O)cc1)CC2	5.4	4.7	–	–	–	–
COc1cccc2c1C=[N+](c1ccc(I)cc1F)CC2	89	54.8	3.64	7.98	–	–
Oc1cccc2c1C=[N+](c1ccccc1I)CC2	30.9	22.9	–	–	–	–
COc1cccc2c1C=[N+](c1cccc(Cl)c1)CC2	73.3	35.1	22.4	9.99	–	–
COc1cccc2c1C=[N+](c1ccccc1Br)CC2	86.8	48.6	5.3	6.89	–	–
COc1cccc([N+]2=Cc3c(cccc3OC)CC2)c1	66.2	22.8	22.8	15.1	–	–
COc1cccc2c1C=[N+](c1cccc(C#N)c1)CC2	83.4	39.6	3.66	7.13	–	–
COc1cccc2c1C=[N+](c1ccc(Br)cc1)CC2	96.8	59.4	6.12	11	–	–
COc1cccc2c1C=[N+](c1ccccc1)CC2	14.4	20.5	–	–	–	–

— ChEMBL document CHEMBL3870340, “Cytotoxic activity, apoptosis induction and structure-activity relationship of 8-OR-2-aryl-3,4-dihydroisoquinolin-2-ium salts as promising anticancer agents” (Bioorg Med Chem Lett, 2017)
